Experimental data taken from patent US7223836B2, “Peptides for chlamydophila pneumoniae vaccine and diagnosis” (The United States of America as represented by the …, priority 2001, dated 2007).
No end group written: not given here.

Key:
8A6 mAb = assay: competitive inhibition ELISA: peptide blocks 8A6 mAb binding to sonicated C. pneumoniae; parameters: species or system murine
Description: To perform these experiments, an ELISA was utilized in which mAb and inhibitor (phage) were premixed, incubated for 2 hours, and then plated onto the microtiter plates with renographin purified, sonicated whole-cell C. pneumoniae.
Several methods were used to determine binding specificity. […] The best synthetic peptides were selected by competing the peptide against the respective native C. pneumoniae lysate for binding to the target mAb.

[1] = test system: 8A6 mAb binding to fixed, cultured C. pneumoniae cells (RBs and EBs); assay: competitive inhibition indirect IFA; parameters: species or system murine; conditions: serially diluted peptide
Description: The indirect immunofluorescence assay (IFA) was performed as described previously (Storey et al., 1993 and Wong Skelton Chan, 1992) with modifications. Antibiotic-free Buffalo African Green monkey cells were seeded into 1 dram shell vials or 24-well tissue culture trays containing 12 mm cover slips at a density of 3.0×10^5 cells/mL. Cells were incubated for 24 hours at 37° C. and checked for confluency. Cell cultures were infected by the addition of C. pneumoniae followed by centrifugation at 3000× g. Inclusions were counted using the Pathfinder® Chlamydia Culture Confirmation System staining kit (Sanofi Diagnostics Pasteur, Redmond, Wash.) as per manufacturer specifications. The 8A6 mAb was used as previously described (Wong et al. 1992) for detection of C. pneumoniae inclusions and to determine species specificity.
A competitive inhibition IFA assay was performed using the previously described IFA assay with modification. […]
Due to the subjective nature of IFA tests, it is difficult to standardize a competitive inhibition to obtain fluorescence measures. Instead, slides were scored from 1 to 4 such that a value of 3+ equals the endpoint titer and changes due to inhibition were scored empirically from comparison with control slides. […]

[2] = immunization of naive mice, antiserum ELISA; format: in vivo; conditions: intraperitoneal, 50–200 μg with aluminum hydroxide, boosters
Description: (§1) In order to identify immunologically reactive C. pneumoniae peptides that can be used in the development of a C. pneumoniae vaccine, naive mice and rabbits were immunized with various C. pneumoniae polypeptides. An exemplary protocol is as follows: 50–200 μg of CP-8A6-B1 (SEQ ID NO:4) was mixed with 1 mg of aluminum hydroxide, a less inflammatory alternative to Freund's adjuvant. Rabbits were injected subcutaneously at multiple sites with 0.05 ml of inoculum, whereas mice were immunized intraperitoneally with no more than 0.2 ml of inoculum. At least 2–3 weeks following the initial immunization, the mice and rabbits were given their first booster immunizations. Mice were given subsequent boosters at two week intervals for up to 6 total injections, whereas rabbits were typically injected every 4–6 weeks. […] Briefly, after the antigen was immobilized, the bound peptide was tested with serial dilutions of the mouse and rabbit antisera and was detected with a goat anti-mouse IgG or a goat anti-rabbit IgG heavy plus light chain antibody horseradish peroxidase conjugate (Pierce Scientific). […] Absorbance at 490 nm was recorded with an enzyme immunoassay reader (Bio-Tek Instruments, Burlington, Vt.). […] Wells with optical density readings greater than 0.2 units at 490 nm were indicative of an immunologically reactive antiserum.

[3] = immunization of naive rabbits, antiserum ELISA; format: in vivo; conditions: subcutaneous, 50–200 μg with aluminum hydroxide, boosters
Description: as §1

[4] = competitive inhibition ELISA, binding of 8A6 mAb to sonicated C. pneumoniae fixed to solid phase

Sequence | IC50 (50% Inhibiting Concentration) (8A6 mAb; [4]) | percent inhibition (8A6 mAb; [4]) | percent inhibition (8A6 mAb; at 50 μg/mL of peptide) | peptide concentration down to which any observable binding of 8A6 mAb was completely blocked [1] | immune response (antiserum reactivity by ELISA) [2] | immune response (antiserum reactivity by ELISA) [3]
HDEGRQIIQFEE [CP-8A6-A2, HDEGRQIIQFEE] | 18.29 µg/mL | 83.5% |  |  |  | 
ESNPVDGAHLSL [CP-8A6-B10A, ESNPVDGAHLSL] | 18.90 µg/mL | 57.4% |  |  |  | 
AFAQAPTHQLSL [CP-8A6-B3, AFAQAPTHQLSL] | 6.46 µg/mL | 67.8% |  |  |  | 
RRLGRQTYDNES [CP-8A6-A1, RRLGRQTYDNES] | 4.82 µg/mL | 84.5% |  |  |  | 
PNEPDDLALMRIIRI [CP-8A6-B1, PNEPDDLALMRIIRI] | 2.93 µg/mL | 95.44% | 95.44% | 100 ng/mL | produced an immune response | produced an immune response
LRNCEQDFFTLN [CP-8A6-A3, LRNCEQDFFTLN] | 18.54 µg/mL | 95.1% |  |  |  | 
